Assay results as given in article PMC4741798, “Imaging of carbonic anhydrase IX with an ^111In-labeled dual-motif inhibitor” (Oncotarget, 2015).
Several values for one entry are separate records, joined by “and”; a condition that tells them apart may be missing. Equal values may be shown once. Entries after “also recorded” stand apart in the source; their conditions may differ.

Key:
[1] = system: CAIX-expressing SK-RC-52 tumors; assay: SPECT/CT imaging of mice with SK-RC-52 tumors; type: in vivo; settings: 14.8 MBq via tail vein
Method: Mice harboring subcutaneous SK-RC-52 tumors with the lower left flank were injected with 14.8 MBq (400 μCi) of [^111In]XYIMSR-01 in 250 μL of PBS (pH = 7.0) intravenously (tail vein). Anesthesia was then induced with 3% isofluorane and maintained at 2% isoflurane. Physiologic temperature was maintained with an external light source while the mouse was on the gantry. Imaging employed a CT-equipped Gamma Medica-Ideas SPECT scanner (Northridge, CA). SPECT data were acquired in 64 projections at 65 s per projection using medium energy pinhole collimators. A CT scan was performed in 512 projections at the end of each SPECT scan for anatomic co-registration. CT and SPECT scans were performed at 1, 4, 8, 24, and 48 h post-injection of [^111In]XYIMSR-01. Imaging data sets were reconstructed using the manufacturer's software. Display of images utilized Amide software (Dice Holdings, Inc. NY).

SK-RC-52 xenografts = assay: Biodistribution in mice bearing SK-RC-52 xenografts; type: in vivo; settings: n = 5; for Biodistribution: Tumor: SK-RC-52 tumor
Method: Mice bearing SK-RC-52 xenografts within the lower left flank were injected intravenously with 740 kBq (20 μCi) of [^111In]XYIMSR-01 in 200 μL of PBS. For in vivo competition (binding specificity) studies, tumor-bearing mice were injected with 740 kBq (20 μCi) of [^111In]XYIMSR-01 and 200 nmole of 1 in 200 μL of PBS concurrently. At 1 h, 4 h, 8 h, 24 h and 48 h post-injection, mice were sacrificed by cervical dislocation and the blood was immediately collected by cardiac puncture. Heart, lungs, pancreas, spleen, fat, brain, muscle, small intestines, liver, stomach, kidney, urinary bladder, and tumor were collected. Each organ was weighed and the tissue radioactivity was measured with an automated gamma counter (1282 Compugamma CS, Pharmacia/LKBNuclear, Inc., Mt. Waverly, Vic. Australia). The percentage of injected dose per gram of tissue (% ID/g) was calculated by comparison with samples of a standard dilution of the initial dose. All measurements were corrected for radioactive decay.
Data were expressed as mean ± standard deviation (SD). Prism software (GraphPAD, San Diego, California) was used to determine statistical significance. Statistical significance was calculated using a paired t test. P-values < 0.0001 were considered significant.

[2] = 24 h + Block (co-injected 200 nmole of 1)

## CC(CCC(=O)N[C@@H](CC(=O)N[C@@H](CC(=O)N[C@@H](CCCCn1cc(CCCC(=O)Nc2nnc(S(N)(=O)=O)s2)nn1)C(=O)NCCOCCOCCNC(=O)CN1CCN(CC(=O)[O-])CCN(CC(=O)[O-])CCN(CC(=O)[O-])CC1)C(=O)O)C(=O)O)(c1ccc(O)cc1)c1ccc(O)cc1.[111In+3] [[^111In]XYIMSR-01]
[1]; 24-48 h post-injection
  retention of radioactivity seen by SPECT/CT at late time points (in words): nearly all of the radioactivity in the kidneys and other organs had been eliminated, with tumor still retaining significant amounts of radiotracer; also recorded: Retention of radioactivity was exclusively observed in tumors by 48 h
[1]; two mice
  tumor uptake seen by SPECT/CT (in words): radiotracer uptake was observed within the tumors at 1 h post-injection; also recorded: radiotracer uptake in tumor as early as 1 h post-injection
SK-RC-52 xenografts; 1 h post-injection, i.v.
  Biodistribution: Tumor: 26 %ID/g and 26.01 ± 5.74 %ID/g
  Biodistribution: Bladder: 4.90 ± 4.96 %ID/g
  Biodistribution: Blood: 1.34 ± 0.17 %ID/g
  Biodistribution: Brain: 1.23 ± 1.10 %ID/g
  Biodistribution: Fat: 1.03 ± 0.24 %ID/g
  Biodistribution: Heart: 5.98 ± 0.53 %ID/g
  Biodistribution: Kidney (kid): 71.26 ± 8.74 %ID/g
  Biodistribution: Liver: 8.36 ± 0.73 %ID/g
  Biodistribution: Lung: 45.85 ± 19.89 %ID/g
  Biodistribution: Muscle (mm): 2.34 ± 2.19 %ID/g
  Biodistribution: Pancreas: 3.81 ± 0.72 %ID/g
  Biodistribution: Sm. intestine: 9.37 ± 1.26 %ID/g
  Biodistribution: Spleen: 0.52 ± 0.04 %ID/g
  Biodistribution: Stomach: 16.71 ± 2.46 %ID/g
SK-RC-52 xenografts; 1 h post-injection
  Tumor/blood ratio: 19.7 and 19.7 ± 4.8
  Tumor/kid (kidney) ratio: 0.36 ± 0.06
  Tumor/mm (muscle) ratio: 12.7 and 12.7 ± 5.8
SK-RC-52 xenografts; 4 h post-injection, i.v.
  Biodistribution: Tumor: 20.83 ± 6.25 %ID/g
  Biodistribution: Bladder: 2.68 ± 1.89 %ID/g
  Biodistribution: Blood: 0.65 ± 0.06 %ID/g
  Biodistribution: Brain: 0.45 ± 0.06 %ID/g
  Biodistribution: Fat: 0.42 ± 0.22 %ID/g
  Biodistribution: Heart: 2.91 ± 0.45 %ID/g
  Biodistribution: Kidney (kid): 41.52 ± 6.07 %ID/g
  Biodistribution: Liver: 4.00 ± 0.58 %ID/g
  Biodistribution: Lung: 17.85 ± 3.55 %ID/g
  Biodistribution: Muscle (mm): 1.01 ± 0.28 %ID/g
  Biodistribution: Pancreas: 1.54 ± 0.40 %ID/g
  Biodistribution: Sm. intestine: 4.27 ± 0.69 %ID/g
  Biodistribution: Spleen: 0.51 ± 0.08 %ID/g
  Biodistribution: Stomach: 7.91 ± 1.28 %ID/g
SK-RC-52 xenografts; 4 h post-injection
  Tumor/blood ratio: 31.9 ± 9.4
  Tumor/kid (kidney) ratio: 0.50 ± 0.15
  Tumor/mm (muscle) ratio: 21.4 ± 7.2
SK-RC-52 xenografts; 8 h post-injection, i.v.
  Biodistribution: Tumor: 34.00 ± 15.16 %ID/g
  Biodistribution: Bladder: 2.28 ± 0.51 %ID/g
  Biodistribution: Blood: 0.48 ± 0.02 %ID/g
  Biodistribution: Brain: 0.59 ± 0.09 %ID/g
  Biodistribution: Fat: 0.45 ± 0.08 %ID/g
  Biodistribution: Heart: 2.61 ± 0.35 %ID/g
  Biodistribution: Kidney (kid): 28.79 ± 21.35 %ID/g
  Biodistribution: Liver: 3.65 ± 0.65 %ID/g
  Biodistribution: Lung: 17.39 ± 8.99 %ID/g
  Biodistribution: Muscle (mm): 1.09 ± 0.15 %ID/g
  Biodistribution: Pancreas: 1.61 ± 0.28 %ID/g
  Biodistribution: Sm. intestine: 4.31 ± 0.67 %ID/g
  Biodistribution: Spleen: 0.64 ± 0.07 %ID/g
  Biodistribution: Stomach: 8.74 ± 1.26 %ID/g
SK-RC-52 xenografts; 8 h post-injection
  Tumor/blood ratio: 77.0 ± 32.5
  Tumor/kid (kidney) ratio: 3.1 ± 3.1
  Tumor/mm (muscle) ratio: 34.2 ± 16.0
SK-RC-52 xenografts; [2]
  Biodistribution: Tumor: 1 %ID/g and 1.41 ± 0.20 %ID/g
  Biodistribution: Bladder: 0.20 ± 0.07 %ID/g
  Biodistribution: Blood: 0.03 ± 0.00 %ID/g
  Biodistribution: Brain: 0.03 ± 0.00 %ID/g
  Biodistribution: Fat: 0.02 ± 0.01 %ID/g
  Biodistribution: Heart: 0.04 ± 0.01 %ID/g
  Biodistribution: Kidney (kid): 0.68 ± 0.14 %ID/g
  Biodistribution: Liver: 0.10 ± 0.02 %ID/g
  Biodistribution: Lung: 0.12 ± 0.02 %ID/g
  Biodistribution: Muscle (mm): 0.02 ± 0.00 %ID/g
  Biodistribution: Pancreas: 0.03 ± 0.00 %ID/g
  Biodistribution: Sm. intestine: 0.08 ± 0.01 %ID/g
  Biodistribution: Spleen: 0.08 ± 0.01 %ID/g
  Biodistribution: Stomach: 0.14 ± 0.02 %ID/g
